Ki, ED50 and IC50 data for seven molecules are collected here from ChEMBL document CHEMBL1139501, “Synthesis and biological evaluation of benzodioxanylpiperazine derivatives as potent serotonin 5-HT(1A) antagonists: the discovery of Lecozotan” (J Med Chem, 2005).

The target in experiment [1] is T1, 5-hydroxytryptamine receptor 1A (Homo sapiens, UniProt P08908).
T1 sequence (P08908 whole entry): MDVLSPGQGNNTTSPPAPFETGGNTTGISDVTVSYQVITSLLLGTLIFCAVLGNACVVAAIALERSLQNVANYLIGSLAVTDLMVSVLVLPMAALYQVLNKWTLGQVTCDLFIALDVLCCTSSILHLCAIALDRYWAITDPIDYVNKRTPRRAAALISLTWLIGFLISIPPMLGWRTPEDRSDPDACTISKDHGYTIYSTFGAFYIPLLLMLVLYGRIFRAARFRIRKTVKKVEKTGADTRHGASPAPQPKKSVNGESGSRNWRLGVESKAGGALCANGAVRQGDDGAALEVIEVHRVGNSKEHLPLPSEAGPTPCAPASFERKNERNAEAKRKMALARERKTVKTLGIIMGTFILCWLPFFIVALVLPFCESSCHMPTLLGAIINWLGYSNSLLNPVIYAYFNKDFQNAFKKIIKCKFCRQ
As to the kind of experiment: biochemical.

In experiment [2] the test system is Rattus norvegicus. As to the kind of experiment: Effective dose on the 8-OH-DPAT induced response at 3 mg/kg sc in presence of 8-OH-DPAT (Effective dose value for 8-OH-DPAT = 0.17). The format is functional. To be noted: route subcutaneous.
Experiment [3] deals with Rattus norvegicus. Kind of experiment: Effective dose on the 8-OH-DPAT induced response at 3 mg/kg sc in presence of 8-OH-DPAT (Effective dose value for 8-OH-DPAT = 0.25). The experiment is classed as functional. The following applies: route subcutaneous.
Experiment [4] has as its target T1, 5-hydroxytryptamine receptor 1A.
Experiment [5] shares this target. The source holds these as a separate data set.
Experiment [6] relates to Rattus norvegicus. As to the kind of experiment: Effective dose on the 8-OH-DPAT induced response at 3 mg/kg sc in presence of 8-OH-DPAT (Effective dose value for 8-OH-DPAT = 0.32). To be noted: route subcutaneous. The experiment is classed as functional.
The subject of experiment [7] is Rattus norvegicus. Kind of experiment: Effective dose on the 8-OH-DPAT induced response at 3 mg/kg sc in presence of 8-OH-DPAT (Effective dose value for 8-OH-DPAT = 0.18). To be noted: route subcutaneous. The format is functional.

The Ki is the equilibrium dissociation constant of an inhibitor or competing ligand from its target. The ED50 is the dose at which the effect has come halfway, by size or by number of responders. As a reminder, the IC50 is the concentration that gives 50% inhibition. A higher IC50 goes with weaker potency.

Take `C[C@@H](CN(C(=O)c1ccc(C(F)(F)F)cc1)c1ccccn1)N1CCN(c2cccc3c2OCCO3)CC1`: the Ki in experiment [1] is 8.6 nM.

As to `C[C@H](CN(C(=O)c1ccc(Cl)cc1)c1ccccn1)N1CCN(c2cccc3c2OCCO3)CC1`, the ED50 in the experiment with Rattus norvegicus [2] was determined as 1.82 mg/kg.

The molecule `C[C@@H](CN(C(=O)c1ccc([N+](=O)[O-])cc1)c1ccccn1)N1CCN(c2cccc3c2OCCO3)CC1` came in with a Ki in experiment [1] of 3.4 nM. That is a single-digit nanomolar value.

Regarding `C[C@H](CN(C(=O)c1ccc([N+](=O)[O-])cc1)c1ccccn1)N1CCN(c2cccc3c2OCCO3)CC1`, the ED50 with Rattus norvegicus [3] came to 3.19 mg/kg. The IC50 in experiment [4] was determined as 4.3 nM; in experiment [5], 23.2 nM. Moreover, the Ki in experiment [1] turned out to be 1 nM.

On to `C[C@H](CN(C(=O)c1ccc(C(F)(F)F)cc1)c1ccccn1)N1CCN(c2cccc3c2OCCO3)CC1`, for which the ED50 with Rattus norvegicus [6] was determined as 0.94 mg/kg. Further, the IC50 stood at 6.2 nM in experiment [4] and 32.1 nM in experiment [5]. In experiment [1], this molecule displayed a Ki of 1.9 nM.

Regarding `C[C@H](CN(C(=O)c1ccc(C#N)cc1)c1ccccn1)N1CCN(c2cccc3c2OCCO3)CC1` [LECOZOTAN], the ED50 with Rattus norvegicus [7] was found to be 3.68 mg/kg. The molecule also yielded an IC50 in experiment [5] of 42 nM.

Regarding `C[C@@H](CN(C(=O)c1ccc(C#N)cc1)c1ccccn1)N1CCN(c2cccc3c2OCCO3)CC1`, affinity in experiment [1] was put at a Ki of 9.2 nM.
